Data on 28 compounds can be found in patent US8877802B2 (priority 2005, dated 2014).

Series [1] concerns DA-depleted DAT-KO (DDD) mice. Description: Locomotor activity (forward locomotion, distance traveled) in DDD mice. As to conditions: for effect in tests of forward locomotion or akinesia and rigidity: NE- and 5-HT-related drugs, data not shown.
The subject of series [2] is DA-depleted DAT-KO (DDD) mice. Description: Ptosis score in DDD mice. The conditions noted are these: cumulative dosing, scale 0-4, n=4.
Series [3] deals with DA-depleted DAT-KO (DDD) mice. As to conditions: mouse, in vivo.
The subject of a further series is DD mice. As to conditions: [76], cited from earlier work.
The test system of series [4] is DA-depleted DAT-KO (DDD) mice. Description: Catalepsy test (horizontal bar) in DDD mice. As to conditions: for Catalepsy (sec) 2 h: as E4, 1 h after second dose.
Series [5] relates to DA-depleted DAT-KO (DDD) mice. Description: Akinesia test (forelimb steps in 30 s) in DDD mice. The conditions noted are these: as E7; 1 h after second dose.
The subject of series [6] is DA-depleted DAT-KO (DDD) mice. Description: Grasping test of muscular rigidity in DDD mice. The conditions noted are these: as E1; 1 h after second dose.
Another series relates to 6-OH-DA-lesioned rats. As to conditions: 6-OH-DA-lesioned rats [85]; cited from earlier work.
The test system of a further series is MPTP-treated monkeys. The conditions noted are these: MPTP-treated monkeys [64]; cited from earlier work.
Another series deals with haloperidol-treated rats. As to conditions: haloperidol-treated rats [84]; cited from earlier work.
The next series deals with TA1 receptor (Rattus norvegicus, UniProt Q923Y9). The conditions noted are these: reported in [42]; cited from earlier work.
Series [7] deals with DAT-KO mice. Description: In vivo microdialysis of striatal extracellular DA. The conditions noted are these: (+)-MDMA 100 mg/kg IP after αMT; in vivo microdialysis. As for the experimental part: Neurochemical assessments. Striatal tissue contents of DA and frontal cortical tissue levels of NE were assessed using HPLC-EC (high performance liquid chromatography with electrochemical detection) as described. In vivo microdialysis measurements of striatal extracellular DA levels in freely moving mice were performed at least 24 h after implantation of a microdialysis probe as described previously. Dialysate samples were assayed for DA using HPLC-EC.

Series [8] deals with DAT-KO mice. In words: Neurotoxic regimen of (±)-MDMA, striatal tissue DA and 5-HT 7 d later. The conditions noted are these: (±)-MDMA 4 injections of 20 mg/kg IP, every 2 h, DAT-KO mice n=7.
In another series the test system is WT mice. Description: Neurotoxic regimen of (±)-MDMA. The conditions noted are these: (±)-MDMA 4 injections of 20 mg/kg IP, every 2 h; WT mice n=7.
Where [9] appears, read: DDD mice, drug 1 h after αMT 250 mg/kg IP.

Read-outs that look alike come from different tables or passages of the source.

TA1 receptor, sequence (Q923Y9 whole entry): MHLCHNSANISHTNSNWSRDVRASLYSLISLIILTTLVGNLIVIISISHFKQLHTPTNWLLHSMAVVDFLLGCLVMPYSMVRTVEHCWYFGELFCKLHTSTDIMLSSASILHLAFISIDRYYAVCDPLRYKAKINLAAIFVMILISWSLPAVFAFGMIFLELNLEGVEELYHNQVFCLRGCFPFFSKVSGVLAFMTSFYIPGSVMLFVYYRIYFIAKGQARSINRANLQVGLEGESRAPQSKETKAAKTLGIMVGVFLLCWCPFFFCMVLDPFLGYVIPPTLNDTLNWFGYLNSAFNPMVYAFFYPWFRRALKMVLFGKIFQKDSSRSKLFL

Take `Cn1c(=O)c2c(ncn2C)n(C)c1=O` [caffeine]: the “forward locomotion (distance traveled)” value in series [1] (mouse, in vivo) was “not effective”.

Regarding `NCCc1ccccc1` [beta-phenylethylamine], in series [1] (setting [9]), the “forward locomotion (distance traveled)” value is “did not induce forward locomotion”. Also, the “stereotypic reactions, such as headweaving and sniffing” value in series [1] (DDD mice, high doses, with or without inhibition of MAO) was “did promote weak stereotypic reactions”.

Take `N[C@H](C(=O)O)[C@H](O)c1ccc(O)c(O)c1` [L-DOPS, L-threo-3,4-dihydroxyphenylserine]: the figures for the ptosis score in series [2] (1 h after 100 mg/kg IP), in series [2] (1 h after 200 mg/kg IP) and in series [2] (1 h after 400 mg/kg IP) were 2.50±0.28, 0 and 0, respectively. Moreover, in series [1] (DDD mice), the “effect in tests of forward locomotion or akinesia and rigidity” value (from here on “effect in tests”) is on record as “none were effective”.

With `C[C@]12N[C@H](Cc3ccccc31)c1ccccc12` [MK-801], the “manifestations of akinesia and rigidity” value in series [3] is “able to reduce rigidity”. Further, the “forward locomotion (distance traveled)” value is “not effective” in series [1] (setting [9]) and “did not result in a significant increase in forward locomotion” in [1] (DDD mice, drug 1 h after αMT 250 mg/kg IP, listed as ME-801).

As for `COc1ccc2[nH]cc(CCN(C)C)c2c1` [5-methoxy-N,N-dimethyltryptamine], in series [1] (DDD mice), the “effect in tests” value is “none were effective”.

In the case of `CNCCCN1c2ccccc2CCc2ccccc21` [desipramine], in series [1] (DDD mice), the “effect in tests” value was “none were effective”.

Consider `Cc1ccc2[nH]cc(CCN(C)C)c2c1` [5-methyl-N,N-dimethyltryptamine], for which the “effect in tests” value in [1] (DDD mice) is “none were effective”.

For the compound `C[C@H](N)Cc1ccccc1` [d-amphetamine], in series [3], the “effects on akinesia and rigidity after pretreatment with D1 and D2 DA antagonists” value was “did not prevent the effects”; the “manifestations of akinesia and rigidity” value was “effective in reducing manifestations of akinesia and rigidity”. Besides, the “locomotor activation in DD mice” value with DD mice (5 mg/kg, first treatment) is on record as “induced potent locomotor activation”. Further, the “locomotor activation in DD mice” value with DD mice (second treatment 2 h later, same dose) was “failed to induce locomotion”.

`N[C@@H](Cc1ccc(O)c(O)c1)C(=O)O` [L-DOPA]: the “forward locomotion (distance traveled)” value in series [1] (setting [9]) is recorded as “effectively restored locomotion”.

In the case of `CC(N)Cc1ccc(Cl)cc1` (centres unmarked) [4-chloro-amphetamine], the “manifestations of akinesia and rigidity” value in [3] is “effective in reducing manifestations of akinesia and rigidity”.

On to `CCN[C@@H](C)Cc1cccc(C(F)(F)F)c1` [(+)-Fenfluramine], for which the “Catalepsy (sec) 2 h” value in [4] was found to be 113 ± 23 s. The “Akinesia (steps) 2 h” value in series [5] turned out to be 21 ± 3 steps. In addition, the “Grasping test (sec) 2 h” value in series [6] worked out at 9 ± 4 s.

For the compound `CC(N)Cc1ccc2c(c1)OCO2.Cl` (racemic) [(±)-MDA, (±)-3,4-methylenedioxyamphetamine HCl], in series [3], the “manifestations of akinesia and rigidity” value is “effective in reducing manifestations of akinesia and rigidity”.

With `CNCCC(Oc1ccc(C(F)(F)F)cc1)c1ccccc1` (centres unmarked) [fluoxetine], in series [1] (DDD mice), the “effect in tests” value is given as “none were effective”.

Turning to `CC(C)(N)Cc1ccccc1` [phentermine], in series [3], the “effects on akinesia and rigidity after pretreatment with D1 and D2 DA antagonists” value is on record as “did not prevent the effects”; the “manifestations of akinesia and rigidity” value is “effective in reducing manifestations of akinesia and rigidity”.

For `Clc1cccc(Cl)c1N=C1NCCN1` [clonidine], in series [1] (DDD mice), the “effect in tests” value is listed as “none were effective”.

In the case of `CCNC(C)Cc1cccc(C(F)(F)F)c1` (racemic) [(±)-Fenfluramine], the “Catalepsy (sec) 2 h” value in series [4] was 138 ± 28 s. Also, the “Akinesia (steps) 2 h” value in series [5] came to 32 ± 6 steps. Also, in series [6], the “Grasping test (sec) 2 h” value came to 8 ± 4 s.

On to `CNC(C)Cc1ccc2c(c1)OCO2` (centres unmarked) [MDMA, 3,4-methylenedioxymethamphetamine], for which the antiakinetic effects result in the series with 6-OH-DA-lesioned rats and in the series on MPTP-treated monkeys was “antiakinetic effects” throughout. For the same compound, the anticataleptic effect entry in the series on haloperidol-treated rats is recorded as “potent anticataleptic effect”.

Consider `CN1Cc2c(N)cccc2C(c2ccccc2)C1` (centres unmarked) [nomifensine], for which, at TA1 receptor, the “activity at TA1 receptor” value was “can also potently activate TA1 receptor”. The reversing catalepsy entry in series [4] (DDD mice, cumulative treatment with 10 and 30 mg/kg IP) is given as “not effective”. In addition, the “manifestations of akinesia and rigidity” value in series [3] is “significantly reduced akinesia and rigidity”. Also, in [1] (setting [9]), the “forward locomotion (distance traveled)” value is reported as “not effective”.

For the compound `CCNC(C)Cc1cccc(C(F)(F)F)c1` (single isomer, unassigned; (-)) [(−)-Fenfluramine], the “Catalepsy (sec) 2 h” value in series [4] was found to be 104 ± 31 s. Moreover, the “Akinesia (steps) 2 h” value in [5] came to 28 ± 5 steps. In addition, in series [6], the “Grasping test (sec) 2 h” value was determined as 4 ± 1 s.

With `CCCN1C[C@H](CSC)C[C@@H]2c3cccc4[nH]cc(c34)C[C@H]21` [pergolide], in series [1] (setting [9]), the “forward locomotion (distance traveled)” value is reported as “induced locomotion”.

As for `C#CCN(C)[C@H](C)Cc1ccccc1` [deprenyl], the “potentiation of locomotor-stimulating effect of subthreshold L-DOPA/carbidopa” value in [1] (DDD mice, L-DOPA/carbidopa 10/10 mg/kg IP 15 min after drug, distance traveled for 2 h) is “failed to potentiate”.

`CNC(C)Cc1ccc2c(c1)OCO2.Cl` (single isomer, unassigned; (+)) [(+)-MDMA, (+)-3,4-methylenedioxymethamphetamine HCl]: the “striatal extracellular DA in DDD mice” value in the series on DAT-KO mice [7] is reported as “did not produce any detectable increase in striatal extracellular DA”. In addition, in [1] (mouse, in vivo), the “forward locomotion (distance traveled)” value is “able to induce significant forward locomotion” and the “potentiation of locomotor-stimulating effect of subthreshold L-DOPA/carbidopa” value is “potent synergistic effect”. Besides, the forward locomotion entry in [1] (mouse, in vivo, HCl) is “induced significant forward locomotion”.

`COc1ccc2[nH]cc(C3=CCNCC3)c2c1` [RU24969]: the “effect in tests” value in [1] (DDD mice) is recorded as “none were effective”.

As to `CC(NC(C)(C)C)C(=O)c1cccc(Cl)c1` (centres unmarked) [Bupropion], the “Catalepsy (sec) 2 h” value in series [4] came out at 123 ± 28 s. For the same compound, the “Akinesia (steps) 2 h” value in [5] came out at 29 ± 11 steps. For the same compound, the “Grasping test (sec) 2 h” value in [6] was found to be 16 ± 3 s.

Regarding `C[C@@H](N)Cc1ccccc1` [L-Amphetamine], in series [4], the “Catalepsy (sec) 2 h” value came out at 99 ± 36 s. Moreover, the “Akinesia (steps) 2 h” value in series [5] was 29 ± 5 steps. The “Grasping test (sec) 2 h” value in series [6] is 9 ± 3 s.

As to `CN[C@@H](C)Cc1ccccc1` [d-methamphetamine], the “manifestations of akinesia and rigidity” value in series [3] is “effective in reducing manifestations of akinesia and rigidity”.

`CN1CCc2cccc3c2[C@H]1Cc1ccc(O)c(O)c1-3` [apomorphine]: the “forward locomotion (distance traveled)” value in series [1] (setting [9]) was “induced locomotion”.

Consider `CNC(C)Cc1ccc2c(c1)OCO2.Cl` (racemic) [(±)-MDMA, (±)-3,4-methylenedioxymethamphetamine HCl], for which, in the series with DAT-KO mice [8], the “striatal tissue 5-HT” value turned out to be 0.40±0.02 ng/mg tissue and the “striatal tissue DA” value turned out to be 0.58±0.04 ng/mg tissue. Also, the “manifestations of akinesia and rigidity” value in series [3] is “effective in reducing manifestations of akinesia and rigidity”. Moreover, the lethality result in the series with WT mice is “lethality of all treated WT mice”.
